Patent US4454123A, “O-xylopyranoside series compounds and methods of use” (Seikagaku Kogyo Co. Ltd., priority 1980, dated 1984)
Like-named read-outs stand apart in the source and are kept apart here.

Legend:
[1] = Acute toxicity (LD50) by oral or intraperitoneal administration to ddY mice (Test Example 6); assay type: in vivo; settings: mouse, in vivo, 7 days
Experimental: (§1) The acute toxicity of the compound according to this invention was determined by forced oral or intraperitoneal administration thereof to ddY mice.
(§2) To prepare each specimen to be administered, a predetermined amount of each compound shown in Table 5 was dissolved in a physiological saline or suspended in a 0.2% solution of carboxymethylcellulose in a physiological saline. Each specimen was administered orally to a ddY mouse via its stomach tube or injected intraperitoneally.

[2] = system: platelet agglutination caused by thrombin; experiment: Inhibitory effect against platelet agglutinating agent thrombin (Test Example 8); assay type: cell-based, human; set-up: key: The degree of agglutination was expressed by using marks +, ++, +++, etc.; The degree of agglutination was expressed by using marks +, ++, +++, etc.; The degree of agglutination was expressed by using marks +, ++, +++, etc; settings: specimen 2 mM, dissolved in 50% ethanol
Experimental: (§3) Inhibitory activities of each compound of this invention against platelet agglutinating agents (ADP, collagen, thrombin, ristocetin and epinephrine)were investigated according to the method using a microscope.
(§4) PRP was prepared by mixing a 3.8% aqueous sodium citrate and a human vein blood at a ratio of 1:9; centrifuging the mixture at 700 r.p.m. for 10 minutes; and then collecting the supernatant.
(§5) The residue remaining after collection of the PRP mentioned above was subjected further to centrifugation at 3000 r.p.m. for 10 minutes and then collected the supernatant to obtain PPP.
(§6) Following solutions were employed for the test.
c. thrombin (0.25 U/ml solution)
(§7) In each well of a Multidish (Nunc Multidish having 24 wells) was placed 0.2 ml of PRP (containing 3.0×10^5 platelet cells/cmm).
(§8) Thereto was added 50 μl of a specimen solution containing 10 mM of the compound according to this invention, and the mixture was stirred at 37° C. for 2 minutes. To the mixture was added 10 μl of each solution of the platelet agglutinating agent mentioned above, and the result was observed by using a microscope 1 minute and then 5 minutes thereafter.
(§9) The degree of agglutination was expressed by using marks +, ++, +++, etc., according to the method by Fukutake et al [Katsuhiro Fukutake, Iwao Yamaguchi: Blood and Blood Vessel, Volume 6, No. 7, pp. 55-60 (1975)].

[3] = system: platelet agglutination caused by ristocetin; experiment: Inhibitory effect against platelet agglutinating agent ristocetin (Test Example 8); assay type: cell-based, human; set-up: key: The degree of agglutination was expressed by using marks +, ++, +++, etc.; The degree of agglutination was expressed by using marks +, ++, +++, etc.; The degree of agglutination was expressed by using marks +, ++, +++, etc; settings: specimen 2 mM, dissolved in 50% ethanol
Experimental: as §3, §4, §5, §6
d. ristocetin (1.5 mg/ml solution)
as §7, §8, §9

[4] = system: platelet agglutination caused by ADP; experiment: Inhibitory effect against platelet agglutinating agent ADP (Test Example 8); assay type: cell-based, human; set-up: key: The degree of agglutination was expressed by using marks +, ++, +++, etc.; The degree of agglutination was expressed by using marks +, ++, +++, etc.; The degree of agglutination was expressed by using marks +, ++, +++, etc; settings: specimen 2 mM, dissolved in 50% ethanol
Experimental: as §3, §4, §5, §6
a. ADP (2 μM/ml solution)
as §7, §8, §9

[5] = system: platelet agglutination caused by collagen; experiment: Inhibitory effect against platelet agglutinating agent collagen (Test Example 8); assay type: cell-based, human; set-up: key: The degree of agglutination was expressed by using marks +, ++, +++, etc.; The degree of agglutination was expressed by using marks +, ++, +++, etc.; The degree of agglutination was expressed by using marks +, ++, +++, etc; settings: specimen 2 mM, dissolved in 50% ethanol
Experimental: as §3, §4, §5, §6
b. collagen (0.25 μM/ml solution)
as §7, §8, §9

[6] = system: Sarcoma-180; experiment: Activity against a transplantable cancer, Sarcoma-180 (Test Example 7); assay type: in vivo, ICR-JCL mice; settings: 100 mg/kg ip once a day for 10 days; for inhibition in vivo at 100 mg/kg: Mus musculus, Sarcoma-180, ip, 240 h, read-out: I.R. (inhibition ratio, Sarcoma-180 tumor weight)
Experimental: Sarcoma-180 cells (1×10^6 cells) were inoculated subcutaneously into the back skin of each of ICR-JCL mice.
Chemotherapy was given intraperitoneally 24 hrs. after inoculation and performed once a day for 10 days. Each specimen to be administered was prepared by dissolving or suspending 30 mg of each compound according to this invention in 1 ml of a physiological saline or in 1 ml of a 0.2% solution of carboxymethylcellulose in a physiological saline, respectively.
All the solutions and the suspensions thus prepared were injected at a volume of 0.1 ml as a single dose (100 mg/Kg).
The inhibition ratio (%) was calculated according to the following equation: […]
wherein T represents the mean weight of the tumor Sarcoma-180 in a tested group of mice; and C represents the mean weight of the tumor in a control group of mice.

[7] = system: ddY mice; experiment: Acute toxicity (LD50) by oral or intraperitoneal administration to ddY mice (Test Example 6); assay type: in vivo; settings: 7 days, 10080 min; for LD50 (ip): intraperitoneal
Experimental: as §1, §2

[8] = system: platelet agglutination caused by epinephrine; experiment: Inhibitory effect against platelet agglutinating agent epinephrine (Test Example 8); assay type: cell-based, human; set-up: key: The degree of agglutination was expressed by using marks +, ++, +++, etc.; The degree of agglutination was expressed by using marks +, ++, +++, etc.; The degree of agglutination was expressed by using marks +, ++, +++, etc; settings: specimen 2 mM, dissolved in 50% ethanol
Experimental: as §3, §4, §5, §6
e. epinephrine (2 μg/ml solution)
as §7, §8, §9

[9] = ip, intraperitoneal, read-out: LD50 (ip)

Row | SMILES | LD50 at 168 h [1, 9] | LD50 at 168 h ([1]; po, read-out: LD50 (po)) | State of agglutination, 5 min. [2] | State of agglutination, 5 min. [3] | State of agglutination, 5 min. [4] | State of agglutination, 5 min. [5] | inhibition in vivo at 100 mg/kg [6] | LD50 (ip) [7] | LD50 (po) [7] | I.R. (inhibition ratio, Sarcoma-180 tumor weight) [6] | State of agglutination, 5 min. [8]
1 | CCCCCCCCCCCCCCCCCCCC[C@@H]1OC[C@@H](O)[C@H](O)[C@H]1O [C-n-Eicosyl-β-D-xylopyranoside] | 430 mg/kg | 2620 mg/kg | + | + | + | + | 44.3% |  |  |  | 
2 | CCCCCCCCCCCC[C@@H]1OC[C@@H](O)[C@H](O)[C@H]1O [C-n-Lauryl-β-D-xylopyranoside] | 620 mg/kg | 2800 mg/kg | + | + |  | + | 83.4% |  |  |  | 
3 | CCCCCCCCC[C@@H]1OC[C@@H](O)[C@H](O)[C@H]1O [C-n-Nonyl-β-D-xylopyranoside] | 920 mg/kg | 3000 mg/kg | + | + | + | + | 73.1% |  |  |  | 
4 | CCCCCCCCCCCCCCCCCC[C@@H]1OC[C@@H](O)[C@H](O)[C@H]1O [C-n-Stearyl-β-D-xylopyranoside] | 480 mg/kg | 2500 mg/kg | + | + | + | + | 54.6% |  |  |  | 
5 | O=C(O)c1ccc(C[C@@H]2OC[C@@H](O)[C@H](O)[C@H]2O)cc1 [C-para(sodiumoxycarbonyl)benzyl-β-D-xylopyranoside] |  |  |  |  |  |  |  | 3000 mg/kg body weight | 9300 mg/kg body weight | 53.2% | 
6 | O=C(O)c1ccc(S[C@@H]2OC[C@@H](O)[C@H](O)[C@H]2O)cc1 [Para(sodiumoxycarbonyl)phenyl 1-thio-β-D-xylopyranoside] |  |  |  |  |  |  |  | 2600 mg/kg body weight | 7000 mg/kg body weight | 49.6% | 
7 | O=C(O)c1ccc(O[C@@H]2OC[C@@H](O)[C@H](O)[C@H]2O)cc1 [Para(sodiumoxycarbonyl)phenyl-β-D-xylopyranoside] |  |  |  |  |  |  |  | 2800 mg/kg body weight | 8200 mg/kg body weight | 39.7% | 
8 | CCCCCCCCCCCCCCCCS[C@@H]1OC[C@@H](O)[C@H](O)[C@H]1O [n-Cetyl 1-thio-β-D-xylopyranoside] | 425 mg/kg | 2280 mg/kg | + | + | + | + | 34.7% |  |  |  | 
9 | CCCCCCCCCCS[C@@H]1OC[C@@H](O)[C@H](O)[C@H]1O [n-Decyl 1-thio-β-D-xylopyranoside] | 450 mg/kg | 2500 mg/kg | + | + | + | + | 40% |  |  |  | +
10 | CCCCCCCCCCCCCCCCCCCCS[C@@H]1OC[C@@H](O)[C@H](O)[C@H]1O [n-Eicosyl 1-thio-β-D-xylopyranoside] | 400 mg/kg | 2300 mg/kg | + | + | + | + | 32.2% |  |  |  | 
11 | CCCCCCCCCCCCS[C@@H]1OC[C@@H](O)[C@H](O)[C@H]1O [n-Lauryl 1-thio-β-D-xylopyranoside] | 407 mg/kg | 2300 mg/kg | + | + | + | + | 42.3% |  |  |  | 
